How the values were obtained:
[1] = Curing experiments: belt cure under LED lamp at 395 nm; conditions: LED 395 nm, 50 μm film
Method: Testing Protocol: Formulations were prepared by combining all materials in the given proportions and then stirring at 30-40° C. until the samples were fully homogeneous; the formulations were then allowed to cool to 20° C. All components remained fully dissolved in the resin formulations throughout these experiments. For all experiments, the formulations were cured on Leneta Form 3N-31 gloss finish paper at 50 μm film thickness using a belt-cure instrument; the films were prepared using a K-bar. All films were then cured under an LED lamp at 395 nm at a belt speed of 10 m/min. The cure speed for each formulation was calculated from the number of passes under each lamp required to give complete surface cure (determined when light scratching of the surface of the film no longer left a mark) and depth cure (determined using the ‘thumb-twist’ test, where no visible mark is made when a thumb is pressed down firmly onto the coating with a twisting motion), and from the belt speed; the calculated cure speed (in m/min) is given in Tables 1A-1B as an average of 3 runs. Where cure speed was less than 0.3 m/min, the result was recorded as ‘No cure’.

[2] = UV PhotoDSC of nail gel top coat compositions
Method: Photo Differential Scanning Calorimetry (PhotoDSC) was used to measure the cure speed, heat generation during cure and heat flow measurements for the UV curable top coat compositions containing TPO, TPO-L and Photoinitiator 9 as shown in Table 2C below. PhotoDSC was measured using a TA instruments Q2000 DSC equipped with an EFOS A4000 Acticure UVNisible light curing system containing a 100 W Mercury lamp light source. The UV-light intensity was measured out of the sample window using an EIT UV power puck II radiometer prior to the experiment. Sample preparation for PhotoDSC occurred as follows: A Tzero aluminum reference pan and a Tzero aluminum sample pan were weighed. One drop of formulation (about 5-15 milligrams) was placed at the center of the sample pan and the mass was recorded. The two pans were placed in the DSC apparatus. The system was stabilized at 25° C. for 30 seconds under a continuous stream of nitrogen. An isothermal experiment was initiated and sample and reference pan were flooded with UVNisible light (320 to 450 nm, 190-210 mJ/cm^2) for two minutes. An exothermic peak, due to crosslinking, is recorded during the experiment. The cure speed is measured by determining the time it takes to reach the peak max while the lamp is turned on. The area under the peak is recorded as the heat flow value (J/g). The max temperature during cure is recorded as the temperature shown at the maximum peak during cure.

[3] = LED-DSC test of 3D printing curable compositions
Method: A photo differential scanning calorimetry (DSC) with a customized 405 nm LED lamp setup was used. All photopolymerization rate measurement were performed using a Q2000 DSC unit from TA Instruments. A lamp holder for the DSC unit can be customized and printed from Arkema N3xtDimention® engineered resin N3D-TOUGH784 in order to ensure precisely fit of a 405 nm lamp AccuCure ULM-2-405 from Digital Light Labs. The LED light was automatically triggered by connecting the “Event” outlet of the DSC unit to an Accure Photo Rheometer Ultraviolet Illumination & Measurement System. LED light exposure can be programed by using “Event” on or off from Photo DSC software, but the intensity of light can be preset from the Accure Photo Rheometer Ultraviolet Illumination & Measurement System. For measurement, approximate 10 mg liquid sample was placed at the center of a T130522 DSC Tzero pan, cured by exposing it to 50 mW/cm^2 of 405 nm LED light for 0.3 minutes under a 50 mL/min N2 flow rate and 40° C. The resulting heat flow (W/g) curve was collected to analyze maximum heat flow peak value and maximum peak time, and listed in Table 3A.

[4] = FTIR test: acrylate conversion; conditions: FIG. 2A
Method: A Fourier Transform Infrared (FTIR) with an Attenuated Total Reflection (ATR) setup was used. All polymerization rate measurements were performed using Nicolet iS50 FT-IR Spectrometer from Thermo Scientific, equipped with a standard DLaTGS detector. A lamp holder for the ART platform of FTIR unit can be customized and printed from Arkema N3xtDimention® engineered resin N3D-TOUGH784 in order to ensure precisely fit of a 405 nm lamp AccuCure ULM-2-405 from Digital Light Labs. On the bottom of this lamp holder, a dry air channel is built in to allow air uniformly blowing over sample surface, the gas flow rate can be controlled over a rotameter. The LED light was manually triggered by Ultraviolet illumination & Measurement System. […] Measurements of acrylate conversion were taken at the height under the reference peak around 1720 cm^−1; the acrylate peak at approximately 1407 cm^−1 was also measured. Peak height was determined using the baseline technique where a baseline is chosen to be the two lowest points between 600 cm^−1 and 1800 cm^−1. The height under the peak and above the baseline was then determined. […]
The ratio of the acrylate height to the reference peak height were determined for both the liquid and the cured samples. Degree of cure or conversion, expressed as percentage reacted acrylate, was calculated from the equation below: […]

[5] = Stability by LED-FTIR analysis at 405 nm (accelerated ageing); type: physicochemical; conditions: photoinitiator or formulation aged at 60° C. for 1 week, 10 mW, dry air, FIG. 6A/6B
Method: The cure speed of aged samples comprising Photoinitiator 11 vs Speedcure TPO was acquired in experimental formulations using LED-FTIR analysis. The photoinitiator was aged at 60° C. for 1 week, then made into formulation and directly compared to ageing the photoinitiator in formulation at 60° C. for 1 week.
LED FT-IR Analysis was conducted on a ThermoScientific Nicolet iS50 Ft-IR Spectrometer with a standard DLaTGS detector 2. A film applicator was used to spread the applied sample into a film of 3 mils thickness. For analysis all the spectra are normalized by using the 1727 cm^−1 (—C═O stretch) peak as reference. For acrylic monomers, the decrease in peak height of C═C peak at 1407 cm^−1 was used for measuring conversion versus time The degree of conversion of the monomers was calculated by measuring the peak height. The stability results for the formulations comprising Speedcure TPO are shown in FIG. 6A and stability the results for the formulations comprising Photoinitiator 11 are shown in FIG. 6B.

[6] = Stability in inkjet formulations, mercury curing; type: physicochemical; conditions: cyan ink, same phosphine oxide w/w %, 6 μm film; FIG. 7A
Method: Resins and photoinitiators were mixed at the target weight ratio before gently stirring using magnetic stirrers at 30-40° C. for 3 hours. Solubility was checked by eye to confirm full dissolution. Curing results at target film weight, were checked by lightly scratching for surface curing and compressed thumb twist for depth curing. Average curing speed was calculated using the belt speed divided by the passing number recorded when full cured resin was achieved. For practical purposes, curing speed less than 0.3 m/min was categorised as “No cure”. Duplicate curing was performed for the same formulation, average curing speed was used for final comparisons.
Cure speed of samples was checked at T=0, then samples were aged in an oven at 60° C. for 2 weeks before reassessing cure speed. Comparison of the initial cure speed vs the cure speed of aged samples was directly compared. Lamp system: the mercury lamp was at an intensity of 50%, with belt speed 10 m/min The LED lamp was set at 395 nm, with a lamp intensity of 70%, at belt speed 20 m/min

[7] = Stability in inkjet formulations, LED curing 395 nm; type: physicochemical; conditions: cyan ink, 6 μm film; FIG. 7B
Method: Resins and photoinitiators were mixed at the target weight ratio before gently stirring using magnetic stirrers at 30-40° C. for 3 hours. Solubility was checked by eye to confirm full dissolution. Curing results at target film weight, were checked by lightly scratching for surface curing and compressed thumb twist for depth curing. Average curing speed was calculated using the belt speed divided by the passing number recorded when full cured resin was achieved. For practical purposes, curing speed less than 0.3 m/min was categorised as “No cure”. Duplicate curing was performed for the same formulation, average curing speed was used for final comparisons. […] Comparison of the initial cure speed vs the cure speed of aged samples was directly compared. […] Film weights were 6 μm.

[8] = 8% w/w photoinitiator in 7:3 w/w bisphenol A ethoxylate diacrylate/tripropylene glycol diacrylate, average of 3 runs
[9] = same active phosphine oxide concentration (given Wt %) in 7:3 w/w bisphenol A ethoxylate diacrylate/tripropylene glycol diacrylate
[10] = compositions containing 2 wt % photoinitiator
[11] = compositions containing 4 wt % photoinitiator

Structure (SMILES) | Cure speed (m/min) Depth cure [1, 8] | Cure speed (m/min) Surface cure [1, 8] | Cure speed (m/min) Depth cure [1, 9] | Cure speed (m/min) Surface cure [1, 9] | time to peak max [2, 10] | time to peak max [2, 11] | cure speed in formulations at the same equivalent of phosphine oxide [3] | cure speed in formulations at the same equivalent of phosphine oxide [4] | stability: cure speed after accelerated ageing [5] | initial curing performance under mercury lamp [6] | initial curing under 395 nm LED [7]
CCCCNC(=O)C(CC(=O)c1c(C)cc(C)c(C(=O)P(=O)(c2ccccc2)c2ccccc2)c1C)N1CCOCC1 (single isomer, unassigned) [Photoinitiator 3] | 3.9 m/min | No cure (Where cure speed was less than 0.3 m/min, the result was recorded as ‘No cure’) | 5.0 m/min | 1.7 m/min | – | – | – | – | – | – | –
CCCCNC(=O)C(CC(=O)c1c(C)cc(C)c(C(=O)P(=O)(c2ccccc2)c2ccccc2)c1C)N1CCN(C)CC1 (single isomer, unassigned) [Photoinitiator 4] | 5.0 m/min | No cure (Where cure speed was less than 0.3 m/min, the result was recorded as ‘No cure’) | 5.0 m/min | 1.6 m/min | – | – | – | – | – | – | –
CCCCNC(=O)/C=C\C(=O)c1c(C)cc(C)c(C(=O)P(=O)(c2ccccc2)c2ccccc2)c1C [Precursor 3] | 1.8 m/min | No cure (Where cure speed was less than 0.3 m/min, the result was recorded as ‘No cure’) | 1.8 m/min | No cure (Where cure speed was less than 0.3 m/min, the result was recorded as ‘No cure’) | – | – | – | – | – | – | –
Cc1cc(C)c(C(=O)P(=O)(c2ccccc2)c2ccccc2)c(C)c1 [SpeedCure TPO, 2,4,6-trimethylbenzoyl diphenyl phosphine oxide] | 5.6 m/min | 2.2 m/min | 5.6 m/min | 2.2 m/min | 0.5 min | 0.06 min | Precursor 4<Photoinitiator 6<TPO | Precursor 4<Photoinitiator 6<TPO | larger reduction in cure speed than Photoinitiator 11 | – | –
Cc1cc(C)c(C(=O)P(=O)(C(=O)c2c(C)cc(C)cc2C)c2ccccc2)c(C)c1 [Speedcure BPO, bis-(2,4,6-trimethylbenzoyl)phenyl phosphine oxide] | – | – | – | – | – | – | – | – | – | closely followed | best curing results
CCOP(=O)(C(=O)c1c(C)cc(C)cc1C)c1ccccc1 (stereo not shown) [Speedcure TPO-L, Ethyl (2,4,6-trimethylbenzoyl)phenyl phosphinate] | – | – | – | – | 0.06 min | 0.06 min | – | – | – | – | –
